In the test the target is T1, PERK (Homo sapiens, UniProt Q9NZJ5).
T1 sequence (Q9NZJ5 30-1116): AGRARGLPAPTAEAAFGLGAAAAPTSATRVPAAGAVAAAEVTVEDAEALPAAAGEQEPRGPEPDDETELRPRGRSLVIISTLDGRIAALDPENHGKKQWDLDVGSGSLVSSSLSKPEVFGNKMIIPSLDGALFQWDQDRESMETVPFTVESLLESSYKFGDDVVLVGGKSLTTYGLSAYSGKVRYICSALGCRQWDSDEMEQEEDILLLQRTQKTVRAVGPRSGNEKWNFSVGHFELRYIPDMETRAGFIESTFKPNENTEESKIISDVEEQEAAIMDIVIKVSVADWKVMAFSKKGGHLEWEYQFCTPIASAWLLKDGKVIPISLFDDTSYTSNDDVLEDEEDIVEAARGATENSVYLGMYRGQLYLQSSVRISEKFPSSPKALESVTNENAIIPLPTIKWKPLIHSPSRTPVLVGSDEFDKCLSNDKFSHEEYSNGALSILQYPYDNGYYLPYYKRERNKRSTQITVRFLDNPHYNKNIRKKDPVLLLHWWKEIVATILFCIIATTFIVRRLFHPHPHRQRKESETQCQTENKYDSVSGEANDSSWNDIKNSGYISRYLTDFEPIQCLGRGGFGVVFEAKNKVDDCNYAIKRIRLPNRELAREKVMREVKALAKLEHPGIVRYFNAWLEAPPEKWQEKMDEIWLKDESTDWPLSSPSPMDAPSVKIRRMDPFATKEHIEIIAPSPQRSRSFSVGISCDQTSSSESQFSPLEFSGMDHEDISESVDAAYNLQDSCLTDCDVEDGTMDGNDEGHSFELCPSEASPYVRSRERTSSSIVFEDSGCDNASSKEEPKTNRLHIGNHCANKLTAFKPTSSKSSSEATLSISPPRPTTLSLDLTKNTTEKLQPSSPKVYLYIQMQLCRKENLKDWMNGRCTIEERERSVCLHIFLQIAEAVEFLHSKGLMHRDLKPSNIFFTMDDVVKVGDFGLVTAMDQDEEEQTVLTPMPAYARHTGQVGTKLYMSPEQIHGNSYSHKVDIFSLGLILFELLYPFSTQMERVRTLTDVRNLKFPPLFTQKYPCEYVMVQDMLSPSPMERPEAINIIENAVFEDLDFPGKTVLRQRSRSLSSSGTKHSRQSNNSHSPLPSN
Nature of the test: PERK enzyme assay (HTRF). Type of test: biochemical. Particulars: at least one experimental run. As for the experimental part:
Compounds of the invention were assayed for PERK enzyme inhibitory activity with modifications to previously reported conditions (Axten et al. J. Med. Chem., 2012, 55, 7193-7207). Briefly, various concentrations of compounds (maximum 1% DMSO) were dispensed into 384-well plates containing GST-PERK enzyme. After 30-60 minutes of compound pre-incubation, ATP and biotin-eIF2α were added and after 60 minutes the reaction was quenched. After 2 hrs, a fluorescence plate reader was used to measure inhibition and IC50s were calculated.
Enzyme Assay Protocol for PKR-Like Endoplasmic Reticulum Kinase (PERK)—HTRF —% Inhibition
Assay Buffer contains HEPES (pH7.5) 10 mM, CHAPS 2 mM, MgCl2 5 mM and DTT 1 mM in water
Detection Buffer contains HEPES (pH7.5) 10 mM and CHAPS 2 mM in water Assay Plate Preparation:
1. Enzyme Preparation: • 4× Enzyme solution was prepared immediately prior to adding to compound plates. • 3 nM of GST-PERK in Assay buffer. Final [PERK] in 10 μl assay volume=0.75 nM
2. Substrate Preparation: • 4× Substrate solution was prepared immediately prior to adding to compound plates. • 4× Substrate solution in assay buffer 2000 μM ATP and 160 nM Biotin-eIF2α • Final [ATP] in 10 μl assay volume=500 μM • Final [biotin-eIF2a] in 10 μl assay volume=40 nM.
3. Quench/Detection Solution: • 16 nM eIF2 Phospho-Antibody • 16 nM Eu anti-Rabbit IgG • 160 nM Streptavidin-APC • 60 mM EDTA • Final concentration in 10 μL assay volume: 4 nM eIF2 Phospho-Antibody, 4 nM Eu anti-Rabbit IgG 40 nM Streptavidin-APC
The activity of compounds in the PERK enzyme assay was determined at PERK Enzyme (500 μM ATP) IC50 (nM).

Where [1] appears, read: PERK Enzyme (500 μM ATP) IC50, read-out: PERK Activity.
Setting [2] is: 500 μM ATP, read-out: PERK Enzyme (500 μM ATP) IC50.

IC50 data for 18 compounds are collected here from patent US20180237441A1, “Chemical Compounds” (GlaxoSmithKline Intellectual Property (No.2) Limited, priority 2015, published 2018).

Like-named read-outs stand apart in the source and are kept apart here. Some results are limits rather than exact numbers.

For the compound `CCN1C(=O)N(c2ccc(-c3cn(C)c4nc(C)nc(N)c34)c(F)c2)CC1c1cc(F)ccc1F` (single isomer, unassigned) [Example 54, 1-(4-(4-amino-2,7-dimethyl-7H-pyrrolo[2,3-d]pyrimidin-5-yl)-3-fluorophenyl)-4-(2,5-difluorophenyl)-3-ethylimidazolidin-2-one], the IC50 under setting [1] is below 100 nM.

With `CN1C(=O)N(c2ccc(-c3cn(C)c4ncnc(N)c34)c(F)c2)CC1c1ccc(F)cc1` (single isomer, unassigned) [Example 59, 1-(4-(4-amino-7-methyl-7H-pyrrolo[2,3-d]pyrimidin-5-yl)-3-fluorophenyl)-4-(4-fluorophenyl)-3-methylimidazolidin-2-one], the IC50 is 3.9 nM under setting [2] and below 100 nM under setting [1].

For the compound `Cc1nc(N)c2c(-c3ccc(N4CC(C5CCCCC5)N(C)C4=O)cc3F)cn(C)c2n1` (single isomer, unassigned) [Example 61, 1-(4-(4-amino-2,7-dimethyl-7H-pyrrolo[2,3-d]pyrimidin-5-yl)-3-fluorophenyl)-4-cyclohexyl-3-methylimidazolidin-2-one], the IC50 under setting [1] lay within 100 to 1000 nM. As for `CN1C(=O)N(c2ccc(-c3cn(C)c4ncnc(N)c34)c(F)c2)CC1C1CCCCC1` (single isomer, unassigned) [Example 62, 1-(4-(4-amino-7-methyl-7H-pyrrolo[2,3-d]pyrimidin-5-yl)-3-fluorophenyl)-4-cyclohexyl-3-methylimidazolidin-2-one], under setting [1], the IC50 is below 100 nM.

As for `CN1C(=O)N(c2ccc(-c3cn(C)c4ncnc(N)c34)c(F)c2)CC1C1CCCCC1` (single isomer, unassigned) [Example 63, 1-(4-(4-amino-7-methyl-7H-pyrrolo[2,3-d]pyrimidin-5-yl)-3-fluorophenyl)-4-cyclohexyl-3-methylimidazolidin-2-one], under setting [1], the IC50 is below 100 nM. As to `Cc1nc(N)c2c(-c3ccc(N4CC(c5ccc(F)cc5F)N(C)C4=O)cc3F)cn(C)c2n1` (single isomer, unassigned) [Example 66, 1-(4-(4-amino-2,7-dimethyl-7H-pyrrolo[2,3-d]pyrimidin-5-yl)-3-fluorophenyl)-4-(2,4-difluorophenyl)-3-methylimidazolidin-2-one], the IC50 is, setting by setting: under setting [2], 86.9 nM; under setting [1], below 100 nM. With `CCN1C(=O)N(c2ccc(-c3cn(C)c4nc(C)nc(N)c34)c(F)c2)CC1c1ccc(F)cc1F` (single isomer, unassigned) [Example 67, 1-(4-(4-amino-2,7-dimethyl-7H-pyrrolo[2,3-d]pyrimidin-5-yl)-3-fluorophenyl)-4-(2,4-difluorophenyl)-3-ethylimidazolidin-2-one], the IC50 under setting [1] was in the range of 100 to 1000 nM. With `Cc1nc(N)c2c(-c3ccc(N4CC(c5ccc(F)cc5)N(C)C4=O)cc3F)cn(C)c2n1` (single isomer, unassigned) [Example 70, 1-(4-(4-amino-2,7-dimethyl-7H-pyrrolo[2,3-d]pyrimidin-5-yl)-3-fluorophenyl)-4-(4-fluorophenyl)-3-methylimidazolidin-2-one], the IC50 runs as follows: under setting [2], 18.6 nM; under setting [1], below 100 nM.

Regarding `Cc1nc(N)c2c(-c3ccc(N4CC(c5c(F)cc(F)cc5F)N(C)C4=O)cc3F)cn(C)c2n1` (single isomer, unassigned) [Example 71, 1-(4-(4-amino-2,7-dimethyl-7H-pyrrolo[2,3-d]pyrimidin-5-yl)-3-fluorophenyl)-3-methyl-4-(2,4,6-trifluorophenyl)imidazolidin-2-one], under setting [1], the IC50 is 100 to 1000 nM. Take `CN1C(=O)N(c2ccc(-c3cn(C)c4ncnc(N)c34)c(F)c2)CC1c1cccc(F)c1F` (single isomer, unassigned) [Example 77, 1-(4-(4-amino-7-methyl-7H-pyrrolo[2,3-d]pyrimidin-5-yl)-3-fluorophenyl)-4-(2,3-difluorophenyl)-3-methylimidazolidin-2-one]: the IC50 under setting [1] was below 100 nM. In the case of `Cc1nc(N)c2c(-c3ccc(N4CC(c5ccc(F)c(F)c5)N(C)C4=O)cc3F)cn(C)c2n1` (single isomer, unassigned) [Example 80, 1-(4-(4-amino-2,7-dimethyl-7H-pyrrolo[2,3-d]pyrimidin-5-yl)-3-fluorophenyl)-4-(3,4-difluorophenyl)-3-methylimidazolidin-2-one], the IC50 under setting [1] was below 100 nM. Turning to `CC(C)n1cc(-c2ccc(N3CC(c4cc(F)ccc4F)N(C)C3=O)cc2F)c2c(N)ncnc21` (single isomer, unassigned) [Example 86, 1-(4-(4-amino-7-isopropyl-7H-pyrrolo[2,3-d]pyrimidin-5-yl)-3-fluorophenyl)-4-(2,5-difluorophenyl)-3-methylimidazolidin-2-one], under setting [1], the IC50 was 100 to 1000 nM.

Regarding `CC(C)n1cc(-c2ccc(N3CC(c4cc(F)ccc4F)N(C)C3=O)cc2F)c2c(N)ncnc21` (single isomer, unassigned) [Example 87, 1-(4-(4-amino-7-isopropyl-7H-pyrrolo[2,3-d]pyrimidin-5-yl)-3-fluorophenyl)-4-(2,5-difluorophenyl)-3-methylimidazolidin-2-one], under setting [1], the IC50 lay in the range of 100 to 1000 nM. For `CCN1C(=O)N(c2ccc(-c3cn(C)c4ncnc(N)c34)c(F)c2)CC1c1cc(F)cc(C(F)(F)F)c1` (single isomer, unassigned) [Example 88, 1-(4-(4-amino-7-methyl-7H-pyrrolo[2,3-d]pyrimidin-5-yl)-3-fluorophenyl)-3-ethyl-4-(3-fluoro-5-(trifluoromethyl)phenyl)imidazolidin-2-one], the IC50 by setting is: under setting [2], 192 nM; under setting [1], 100 to 1000 nM. `CCN1C(=O)N(c2ccc(-c3cn(C)c4ncnc(N)c34)c(F)c2)CC1c1cc(F)cc(C(F)(F)F)c1` (single isomer, unassigned) [Example 89, 1-(4-(4-amino-7-methyl-7H-pyrrolo[2,3-d]pyrimidin-5-yl)-3-fluorophenyl)-3-ethyl-4-(3-fluoro-5-(trifluoromethyl)phenyl)imidazolidin-2-one]: under setting [1], the IC50 fell in the range of 100 to 1000 nM. Take `Cc1nc(N)c2c(-c3ccc(N4CC(c5ccc(F)cc5)N(C)C4=O)cc3F)cn(C3CC3)c2n1` (single isomer, unassigned) [Example 90, 1-(4-(4-amino-7-cyclopropyl-2-methyl-7H-pyrrolo[2,3-d]pyrimidin-5-yl)-3-fluorophenyl)-4-(4-fluorophenyl)-3-methylimidazolidin-2-one]: under setting [1], the IC50 was below 100 nM. For the compound `Cc1nc(N)c2c(-c3ccc(N4CC(c5ccc(F)cc5F)N(C)C4=O)cc3F)cn(C(C)C)c2n1` (single isomer, unassigned) [Example 95, 1-(4-(4-amino-7-isopropyl-2-methyl-7H-pyrrolo[2,3-d]pyrimidin-5-yl)-3-fluorophenyl)-4-(2,4-difluorophenyl)-3-methylimidazolidin-2-one], the IC50 under setting [1] fell in the range of 100 to 1000 nM. For the compound `CN1C(=O)N(c2ccc(-c3cn(C)c4ncnc(N)c34)c(F)c2)CC1c1cc(F)cc(F)c1` (single isomer, unassigned) [Example 100, 1-(4-(4-amino-7-methyl-7H-pyrrolo[2,3-d]pyrimidin-5-yl)-3-fluorophenyl)-4-(3,5-difluorophenyl)-3-methylimidazolidin-2-one], the IC50 runs as follows: under setting [2], 3 nM; under setting [1], below 100 nM.
